The source made the active and inactive calls.
Tests used:
Assay type in all cases: functional, cell-based
PC-3 = assay: Cytotoxicity against human PC3 cells by spectrophotometry
NCI/ADR-RES = assay: Cytotoxicity against human NCI/ADR-RES cells by spectrophotometry
OVCAR-3 = assay: Cytotoxicity against human OVCAR-3 cells by spectrophotometry
K562 = assay: Cytotoxicity against human K562 cells by spectrophotometry
UACC-62 = assay: Cytotoxicity against human UACC62 cells by spectrophotometry
NCI-H460 = assay: Cytotoxicity against human NCI-H460 cells by spectrophotometry
HT-29 = assay: Cytotoxicity against human HT-29 cells by spectrophotometry
MCF7 = assay: Cytotoxicity against human MCF7 cells by spectrophotometry

Measured: Activity

Cc1cccc(Nc2ncnc3cc4c(cc23)OCO4)c1
active: all assays above

c1ccc(Nc2ncnc3cc4c(cc23)OCO4)cc1
active: all assays above
